Assay results taken from patent US5470827A, “Method of producing iturin A and antifungal agent for profound mycosis” (Higeta Shoyu Co., Ltd., priority 1993, dated 1995).
In brackets after ≈: the same amount, converted by molar mass. *1 amine or outer side, *2 acyl side, *3 side chain or, on linkers, in order; H or OH if unused. Where a SMILES comes first, the peptide text is derived from it. [ ]: non-standard residue; d: D form. ξ: configuration not given here. ξβ3hGly(tridecyl) = CCCCCCCCCCCCCC(CC(=O)[*:2])N[*:1]; ξβ3hGly(undecyl) = CCCCCCCCCCCC(CC(=O)[*:2])N[*:1]; X2 = CC(C)CCCCCCCCC[C@H](CC(=O)[*:2])N[*:1]; X6 = CCC(C)CCCCCCCCCCC(CC(=O)[*:2])N[*:1]; X4 = CC(C)CCCCCCCCCCC(CC(=O)[*:2])N[*:1]; X3 = CCC(C)CCCCCCCCC(CC(=O)[*:2])N[*:1]; X5 = CCCCCCCCCCCCC(CC(=O)[*:2])N[*:1]

Key:
Candida albicans 7N = assay type: cell-based; conditions: for MIC: 7N
Protocol: (§1) The microbicidal spectrum of iturin A, which is the active ingredient in the antifungal agent for profound mycosis of the present invention, may be obtained, for example, from the minimum growth inhibiting concentration (MIC) of iturin A to various fungi such as clinically-isolated strains, animal-infected fungi and others to be obtained on the basis of the method as designated by Japan Chemotherapy Association.
(§2) The antifungal activity of iturin A as produced in Example 1 was measured to identify its antifungal activity. Precisely, the minimum growth inhibiting concentration (MIC) of iturin A4 against fungi was measured on the basis of the method as designated by Japan Chemotherapy Association, and the results shown in Table 6 below were obtained.
In addition, MIC of each of iturin A2 to iturin A8 against Candida albicans 7N was measured in the same manner as above, and the results shown in Table 7 below were obtained.
Fungi used: Candida albicans 7N
Medium used: 0.5% Glucose, Yeastnitrogen base (made by DIFCO Co.)

[1] = test system: Aspergillus fumigatus Tsukuba No. 12; assay: minimum growth inhibiting concentration (MIC); assay type: cell-based
Protocol: as §1, §2

A. flavas IAM 2044 = assay: minimum growth inhibiting concentration (MIC); assay type: cell-based
Protocol: as §1, §2

[2] = test system: Cryptococcus neoformans IFM 40043; assay: minimum growth inhibiting concentration (MIC); assay type: cell-based
Protocol: as §1, §2

[3] = test system: Candida albicans IFM 40001; assay: minimum growth inhibiting concentration (MIC); assay type: cell-based
Protocol: as §1, §2

[4] = test system: Mucor guilliermondii IFO 9403; assay: minimum growth inhibiting concentration (MIC); assay type: cell-based
Protocol: as §1, §2

C. tropicalis IFM 40018 = assay: minimum growth inhibiting concentration (MIC); assay type: cell-based
Protocol: as §1, §2

[5] = test system: Candida albicans IFM 40002; assay: minimum growth inhibiting concentration (MIC); assay type: cell-based
Protocol: as §1, §2

C. krusei IFM 40019 = assay: minimum growth inhibiting concentration (MIC); assay type: cell-based
Protocol: as §1, §2

[6] = test system: Cryptococcus neoformans IFM 40038; assay: minimum growth inhibiting concentration (MIC); assay type: cell-based
Protocol: as §1, §2

C. glabrata IFM 40065 = assay: minimum growth inhibiting concentration (MIC); assay type: cell-based
Protocol: as §1, §2

[7] = Acute Toxicity Test, oral single administration; assay type: in vivo, ddy-N mice; conditions: for Mortality (%) / Time-Dependent Mortality: oral 2,000 mg/kg once; for Time-Dependent Mortality: day 1; for LD50 (mg/kg): oral single administration
Protocol: Iturin A4 obtained in Example 1 was dissolved in an injectable distilled water to prepare an aqueous 10% (w/v) solution of iturin A4 to be tested. The test solution was forcedly oral-administered once to five male and five female ddy-N mice, after having been fasted for 13 hours, by the use of a stomach probe. The test ddy-N mice were about 4-week age ones and were obtained from Nippon Medico-Chemical Animal Sources Laboratories Co., Ltd. Prior to the test, all the test mice were preliminarily bred in the laboratory for one week so as to confirm the healthy condition of them. Then, the about 5-week age mice were subjected to the test. The body weight of the test mice just before the test was 28 g (male mice) and from 18 to 22 g (female mice).
To each of the male and female mice, the test solution was administered in an amount of 20 ml per kg of the body weight, whereby 2,000 mg/kg of the test substance was administered to them.

[8] = Acute toxicity, plural intravenous injections; assay type: in vivo, ddy-N mice; conditions: male mice, intravenous 30 mg/kg/day × 14 times
Protocol: (§3) In the next test, mice of the same kind as mentioned above were used. Iturin A4 was dissolved in DMSO(dimethylsulfoxide)-castor oil-5% Glc solution, and the resulting solution was injected to the caudal vein of each of the five male mice once or plural times. For the single injection, the solution was administered to the mice each in an amount of 200 mg per kg of the body weight; and for the plural injections, it was administered to them 14 times each in an amount of 30 mg/kg/day. After the injection(s), the time-dependent mortality of the test mice was observed and the results shown in Tables 10 and 11 below were obtained.

[9] = Acute toxicity, single intravenous injection; assay type: in vivo, ddy-N mice; conditions: male mice
Protocol: as §3

[10] = oral 2,000 mg/kg, male and female mice

CCCCCCCCCCCC1CC(=O)N[C@@H](CC(N)=O)C(=O)N[C@H](Cc2ccc(O)cc2)C(=O)N[C@H](CC(N)=O)C(=O)N[C@@H](CCC(N)=O)C(=O)N2CCC[C@H]2C(=O)N[C@H](CC(N)=O)C(=O)N[C@@H](CO)C(=O)N1 (stereo partly drawn) [Iturin A2, iturin A2] (cyclo(N[dY][dN]QP[dN]S[ξβ3hGly(undecyl)]))
MIC (Candida albicans 7N): 50 µg/mL (≈ 47.9 µM)

CCC(C)CCCCCCCCC1CC(=O)N[C@@H](CC(N)=O)C(=O)N[C@H](Cc2ccc(O)cc2)C(=O)N[C@H](CC(N)=O)C(=O)N[C@@H](CCC(N)=O)C(=O)N2CCC[C@H]2C(=O)N[C@H](CC(N)=O)C(=O)N[C@@H](CO)C(=O)N1 (stereo partly shown) [Iturin A3, iturin A3] (cyclo(N[dY][dN]QP[dN]S[X3]))
MIC (Candida albicans 7N): 50 µg/mL (≈ 47.3 µM)

CC(C)CCCCCCCCC[C@@H]1CC(=O)N[C@@H](CC(N)=O)C(=O)N[C@H](Cc2ccc(O)cc2)C(=O)N[C@H](CC(N)=O)C(=O)N[C@@H](CCC(N)=O)C(=O)N2CCC[C@H]2C(=O)N[C@H](CC(N)=O)C(=O)N[C@@H](CO)C(=O)N1 [Iturin A4, iturin A4] (cyclo(N[dY][dN]QP[dN]S[X2]))
MIC (μg/ml) of Iturin A4 [1]: 6.25 µg/mL
MIC (μg/ml) of Iturin A4 (A. flavas IAM 2044): 2.4 µg/mL
MIC (μg/ml) of Iturin A4 [2]: 0.78 µg/mL
MIC (μg/ml) of Iturin A4 [3]: < 0.05 µg/mL
MIC (μg/ml) of Iturin A4 [4]: 1.2 µg/mL
MIC (μg/ml) of Iturin A4 (C. tropicalis IFM 40018): 6.25 µg/mL
MIC (μg/ml) of Iturin A4 [5]: 1.56 µg/mL
MIC (μg/ml) of Iturin A4 (C. krusei IFM 40019): 25 µg/mL
MIC (μg/ml) of Iturin A4 [6]: 3.13 µg/mL
MIC (μg/ml) of Iturin A4 (C. glabrata IFM 40065): 6.25 µg/mL
MIC (μg/ml) of Iturin A4 (Candida albicans 7N; Candida albicans 7N (Table 6)): 25 µg/mL
Mortality (%) ([7]; female mice): 0%
Time-Dependent Mortality ([7]; female mice): 0/5
LD50 (mg/kg) ([7]; female mice): > 2,000 mg/kg
Mortality (%) ([7]; male mice): 0%
Time-Dependent Mortality ([7]; male mice): 0/5
LD50 (mg/kg) ([7]; male mice): > 2,000 mg/kg
time until vitality came back to normal after the administration [7, 10]: 2 h
vitality of the test mice just after the administration [7, 10]: lowered slightly
Mortality (%) [8]: 0%
Time-Dependent Mortality ([8]; 14 days): 0/5
Time-Dependent Mortality ([8]; day 1): 0/5
LD50 ([9]; single intravenous injection): > 200 mg/kg
Mortality (%) ([9]; single intravenous injection 200 mg/kg): 0%
Time-Dependent Mortality ([9]; single intravenous injection 200 mg/kg, day 1): 0/5

CCCCCCCCCCCCC1CC(=O)N[C@@H](CC(N)=O)C(=O)N[C@H](Cc2ccc(O)cc2)C(=O)N[C@H](CC(N)=O)C(=O)N[C@@H](CCC(N)=O)C(=O)N2CCC[C@H]2C(=O)N[C@H](CC(N)=O)C(=O)N[C@@H](CO)C(=O)N1 (stereo partly shown) [Iturin A5, iturin A5] (cyclo(N[dY][dN]QP[dN]S[X5]))
MIC (Candida albicans 7N): 25 µg/mL (≈ 23.6 µM)

CC(C)CCCCCCCCCCC1CC(=O)N[C@@H](CC(N)=O)C(=O)N[C@H](Cc2ccc(O)cc2)C(=O)N[C@H](CC(N)=O)C(=O)N[C@@H](CCC(N)=O)C(=O)N2CCC[C@H]2C(=O)N[C@H](CC(N)=O)C(=O)N[C@@H](CO)C(=O)N1 (stereo partly shown) [Iturin A6, iturin A6] (cyclo(N[dY][dN]QP[dN]S[X4]))
MIC (Candida albicans 7N): 12.5 µg/mL (≈ 11.7 µM)

CCCCCCCCCCCCCC1CC(=O)N[C@@H](CC(N)=O)C(=O)N[C@H](Cc2ccc(O)cc2)C(=O)N[C@H](CC(N)=O)C(=O)N[C@@H](CCC(N)=O)C(=O)N2CCC[C@H]2C(=O)N[C@H](CC(N)=O)C(=O)N[C@@H](CO)C(=O)N1 (stereo partly drawn) [Iturin A7, iturin A7] (cyclo(N[dY][dN]QP[dN]S[ξβ3hGly(tridecyl)]))
MIC (Candida albicans 7N): 6.25 µg/mL (≈ 5.83 µM)

CCC(C)CCCCCCCCCCC1CC(=O)N[C@@H](CC(N)=O)C(=O)N[C@H](Cc2ccc(O)cc2)C(=O)N[C@H](CC(N)=O)C(=O)N[C@@H](CCC(N)=O)C(=O)N2CCC[C@H]2C(=O)N[C@H](CC(N)=O)C(=O)N[C@@H](CO)C(=O)N1 (stereo partly shown) [Iturin A8, iturin A8] (cyclo(N[dY][dN]QP[dN]S[X6]))
MIC (Candida albicans 7N): 12.5 µg/mL (≈ 11.5 µM)
